This experiment deals with T1, Farnesyl protein transferase (FPT) (Homo sapiens, UniProt P49354+P49356).
T1 construct: partially purified from human placenta by ammonium sulphate fractionation; from tissue; host or cells: human placenta
In words: In-vitro assay (test (i)): inhibition of farnesylation of Ki-ras with radiolabelled farnesyl pyrophosphate. To be noted: FPT partially purified from human placenta; substrate Kras (CVIM C-terminal sequence). The experiment is classed as biochemical. The protocol: The following stock solutions were used and the assays were conducted in 96 well plates: TRIS Buffer (500 mM TRIS, 5 mM MgCl2.6H2O, pH=8.0); Farnesyl pyrophosphate (6.4 mg/ml); Aprotinin (1.9 mg/ml); Ki-ras (0.5 mg/ml, stored at −80° C.); Acid ethanol (850 ml absolute ethanol+150 ml concentrated HCl).
Farnesyl protein transferase (FPT) was partially purified from human placenta by ammonium sulphate fractionation followed by a single Q-Sepharose™ (Pharmacia, Inc) anion exchange chromatography essentially as described by Ray and Lopez-Belmonte (Ray K P and Lopez-Belmonte J (1992) Biochemical Society Transactions 20 494-497). The substrate for FPT was Kras (CVIM C-terminal sequence). The cDNA for oncogenic val 12 variant of human c-Ki-ras-2 4B was obtained from the plasmid pSW11-1 (ATCC). This was then subcloned into the polylinker of a suitable expression vector e.g. pIC147. The Kras was obtained after expression in the E. coli strain, BL21. […]
Assays were performed in 96 well plates as follows: 10 μl of test compound solution was added to each well. […] Precipitated protein was then collected onto glass fibre filter mats (B) using a Tomtec™ cell harvester and tritiated label was measured in a Wallac™ 1204 Betaplate scintillation counter. […]

As usually defined, the IC50 is the point on the concentration scale where inhibition reaches its midpoint. A low value points to greater potency in that assay. With `CSCC[C@H](NC(=O)c1ccc(/C=C/Cn2ccnc2)cc1-c1ccc(Cl)cc1Cl)C(=O)O` [Example 29, (2S)-2-{4-[(E)-3-(Imidazol-1-yl)prop-1-en-1-yl]-2-(2,4-dichlorophenyl)benzamido}-4-methylsulfanylbutyric Acid], the IC50 was approximately 0.4 nM.

The values above are taken from patent US6486156B1, “Chemical compounds” (Astrazeneca AB, priority 1998, dated 2002).
